Experimental data published in patent US20100093751A1, “Indolizineacetic Acids and Their Therapeutic Use as Ligands of the CRTH2 Receptor” (priority 2006, published 2010).

Biological target: T1, CRTH2 receptor (Homo sapiens, UniProt Q9Y5Y4)
T1 construct: expressed in transfected cells; host or cells: HEK (human embryonic kidney) cells, membranes
T1 sequence (Q9Y5Y4 1-395): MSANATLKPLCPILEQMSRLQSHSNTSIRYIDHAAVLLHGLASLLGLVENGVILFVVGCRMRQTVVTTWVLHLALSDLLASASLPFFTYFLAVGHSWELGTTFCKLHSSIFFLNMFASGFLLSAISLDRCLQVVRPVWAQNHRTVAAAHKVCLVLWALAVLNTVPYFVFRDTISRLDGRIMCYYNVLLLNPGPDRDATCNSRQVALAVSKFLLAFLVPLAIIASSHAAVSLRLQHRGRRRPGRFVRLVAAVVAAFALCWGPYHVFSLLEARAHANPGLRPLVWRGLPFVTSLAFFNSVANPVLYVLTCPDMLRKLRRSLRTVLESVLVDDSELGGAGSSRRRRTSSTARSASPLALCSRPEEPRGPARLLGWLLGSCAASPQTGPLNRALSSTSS
Assay: CRTH2 radioligand binding assay ([3H]-PGD2 displacement, SPA)
Conditions: HEK cell membranes expressing the CRTH2 receptor, 1 nM [3H]-PGD2; Ki from IC50 by Cheng-Prusoff equation
Experimental: Compounds of the invention were tested using the following biological test method to determine their ability to displace PGD2 from the CRTH2 receptor.
Radioligand Binding Assay
The receptor binding assay is performed in a final volume of 200 μL binding buffer [10 mM BES (pH 7.4), 1 mM EDTA, 10 mM manganese chloride, 0.01% BSA] and 1 nM [^3H]-PGD2 (Amersham Biosciences UK Ltd). Ligands are added in assay buffer containing a constant amount of DMSO (1% by volume). Total binding is determined using 1% by volume of DMSO in assay buffer and non-specific binding is determined using 10 μM of unlabeled PGD2 (Sigma). Human embryonic kidney (HEK) cell membranes (3.5 μg) expressing the CRTH2 receptor are incubated with 1.5 mg wheatgerm agglutinin SPA beads and 1 nM [^3H]-PGD2 (Amersham Biosciences UK Ltd) and the mixture incubated for 3 hours at room temperature. Bound [^3H]-PGD2 is detected using a Microbeta TRILUX liquid scintillation counter (Perkin Elmer). Compound IC50 value is determined using a 6-point dose response curve in duplicate with a semi-log compound dilution series. IC50 calculations are performed using Excel and XLfit (Microsoft), and this value is used to determine a Ki value for the test compound using the Cheng-Prusoff equation.

Ki	Compound
0.5 nM	Cc1c(CC(=O)O)c2ccc(F)cn2c1Sc1ccc(S(=O)(=O)N2CCOCC2)cc1F [Example 1, {6-fluoro-3-[2-fluoro-4-(morpholine-4-sulfonyl)phenylsulfanyl]-2-methylindolizin-1-yl}acetic acid]
19 nM	Cc1c(CC(=O)O)c2ccc(F)cn2c1Sc1ccc(-c2cnn(C)c2)cc1 [Example 4, {6-fluoro-2-methyl-3-[4-(1-methyl-1H-pyrazol-4-yl)phenylsulfanyl]indolizin-1-yl}acetic acid]
